Assay results published in ChEMBL document CHEMBL3734664, “Noncovalent Mutant Selective Epidermal Growth Factor Receptor Inhibitors: A Lead Optimization Case Study” (J Med Chem, 2015).

Assays:
Mus musculus [1] = assay: In vivo inhibition of EGFR in human NCI-H1975 cells xenografted in SCID mouse assessed as suppression of ERK phosphorylation at 300 mg/kg, po qd everyday for 3 days measured 2 to 8 hrs post last dose by electrochemiluminescent immunoassay; assay type: functional
Rattus norvegicus = assay: Unbound plasma clearance in rat at 5 mg/kg, iv; assay type: ADME, organism-based; conditions: in vivo
[2] = molecular target: T1, Epidermal growth factor receptor (Homo sapiens, UniProt P00533)
T1 sequence (P00533 whole entry): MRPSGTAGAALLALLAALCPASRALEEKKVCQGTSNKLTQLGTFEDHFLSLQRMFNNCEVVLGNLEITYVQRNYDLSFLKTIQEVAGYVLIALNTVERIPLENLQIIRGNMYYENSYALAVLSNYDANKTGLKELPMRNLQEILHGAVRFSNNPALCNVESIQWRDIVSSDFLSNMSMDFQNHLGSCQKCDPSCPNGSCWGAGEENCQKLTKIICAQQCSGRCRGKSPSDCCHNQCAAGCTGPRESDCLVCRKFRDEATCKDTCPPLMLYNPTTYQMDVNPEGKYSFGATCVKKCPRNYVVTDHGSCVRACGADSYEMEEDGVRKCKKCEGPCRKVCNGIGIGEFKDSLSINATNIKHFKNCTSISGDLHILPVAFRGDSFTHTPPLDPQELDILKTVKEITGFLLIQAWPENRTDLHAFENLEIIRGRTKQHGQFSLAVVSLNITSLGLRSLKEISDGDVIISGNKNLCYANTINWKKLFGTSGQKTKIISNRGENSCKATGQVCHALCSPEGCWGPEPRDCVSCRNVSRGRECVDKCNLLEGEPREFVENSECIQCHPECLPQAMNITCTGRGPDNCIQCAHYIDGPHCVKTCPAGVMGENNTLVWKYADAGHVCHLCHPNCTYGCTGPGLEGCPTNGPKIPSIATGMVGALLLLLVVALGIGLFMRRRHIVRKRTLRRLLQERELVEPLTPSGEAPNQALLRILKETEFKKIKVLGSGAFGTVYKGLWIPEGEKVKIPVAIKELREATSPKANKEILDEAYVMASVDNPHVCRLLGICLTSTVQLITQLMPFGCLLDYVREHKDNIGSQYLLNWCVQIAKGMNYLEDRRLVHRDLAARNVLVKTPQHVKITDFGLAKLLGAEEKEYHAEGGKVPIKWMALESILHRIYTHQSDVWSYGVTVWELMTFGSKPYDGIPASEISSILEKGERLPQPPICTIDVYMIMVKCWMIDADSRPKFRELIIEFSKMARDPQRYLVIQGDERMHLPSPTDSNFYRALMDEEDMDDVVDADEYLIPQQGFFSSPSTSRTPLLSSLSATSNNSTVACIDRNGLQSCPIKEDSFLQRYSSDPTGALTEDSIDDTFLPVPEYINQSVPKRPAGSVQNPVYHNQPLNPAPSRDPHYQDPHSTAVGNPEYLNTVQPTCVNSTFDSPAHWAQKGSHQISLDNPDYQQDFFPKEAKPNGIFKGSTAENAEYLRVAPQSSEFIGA
Description: Inhibition of EGFR phosphorylation in human NCI-H292 cells preincubated for 1 hr followed by stimulation with EGF for 8 mins by electrochemiluminescent immunoassay

[3] = molecular target: T2, Epidermal growth factor receptor (Homo sapiens, UniProt P00533, 746-750DEL/T790M); assay: Inhibition of EGFR T790M/del (746 to 750) deletion mutant phosphorylation in erlotinib-resistant human PC9 cells preincubated for 1 hr followed by stimulation with EGF for 8 mins by electrochemiluminescent immunoassay; assay type: cell-based, PC-9
T2 sequence (P00533 whole entry, looked up, stated change not applied): as the sequence (P00533 whole entry) above

[4] = molecular target: T1, Epidermal growth factor receptor; remark: listed apart in the source
Mus musculus [5] = assay: In vivo inhibition of EGFR in human NCI-H1975 cells xenografted in SCID mouse assessed as suppression of AKT phosphorylation at 300 mg/kg, po qd everyday for 3 days measured 2 to 8 hrs post last dose by electrochemiluminescent immunoassay; assay type: functional
Mus musculus [6] = assay: In vivo inhibition of EGFR phosphorylation in human NCI-H1975 cells xenografted in SCID mouse at 300 mg/kg, po qd everyday for 3 days measured 2 to 8 hrs post last dose by electrochemiluminescent immunoassay; assay type: functional
[7] = molecular target: Epidermal growth factor receptor (Homo sapiens, UniProt P00533, L858R/T790M)
Sequence of Epidermal growth factor receptor (Homo sapiens, UniProt P00533, L858R/T790M) (P00533 25-1210 T790M/L858R limits assumed): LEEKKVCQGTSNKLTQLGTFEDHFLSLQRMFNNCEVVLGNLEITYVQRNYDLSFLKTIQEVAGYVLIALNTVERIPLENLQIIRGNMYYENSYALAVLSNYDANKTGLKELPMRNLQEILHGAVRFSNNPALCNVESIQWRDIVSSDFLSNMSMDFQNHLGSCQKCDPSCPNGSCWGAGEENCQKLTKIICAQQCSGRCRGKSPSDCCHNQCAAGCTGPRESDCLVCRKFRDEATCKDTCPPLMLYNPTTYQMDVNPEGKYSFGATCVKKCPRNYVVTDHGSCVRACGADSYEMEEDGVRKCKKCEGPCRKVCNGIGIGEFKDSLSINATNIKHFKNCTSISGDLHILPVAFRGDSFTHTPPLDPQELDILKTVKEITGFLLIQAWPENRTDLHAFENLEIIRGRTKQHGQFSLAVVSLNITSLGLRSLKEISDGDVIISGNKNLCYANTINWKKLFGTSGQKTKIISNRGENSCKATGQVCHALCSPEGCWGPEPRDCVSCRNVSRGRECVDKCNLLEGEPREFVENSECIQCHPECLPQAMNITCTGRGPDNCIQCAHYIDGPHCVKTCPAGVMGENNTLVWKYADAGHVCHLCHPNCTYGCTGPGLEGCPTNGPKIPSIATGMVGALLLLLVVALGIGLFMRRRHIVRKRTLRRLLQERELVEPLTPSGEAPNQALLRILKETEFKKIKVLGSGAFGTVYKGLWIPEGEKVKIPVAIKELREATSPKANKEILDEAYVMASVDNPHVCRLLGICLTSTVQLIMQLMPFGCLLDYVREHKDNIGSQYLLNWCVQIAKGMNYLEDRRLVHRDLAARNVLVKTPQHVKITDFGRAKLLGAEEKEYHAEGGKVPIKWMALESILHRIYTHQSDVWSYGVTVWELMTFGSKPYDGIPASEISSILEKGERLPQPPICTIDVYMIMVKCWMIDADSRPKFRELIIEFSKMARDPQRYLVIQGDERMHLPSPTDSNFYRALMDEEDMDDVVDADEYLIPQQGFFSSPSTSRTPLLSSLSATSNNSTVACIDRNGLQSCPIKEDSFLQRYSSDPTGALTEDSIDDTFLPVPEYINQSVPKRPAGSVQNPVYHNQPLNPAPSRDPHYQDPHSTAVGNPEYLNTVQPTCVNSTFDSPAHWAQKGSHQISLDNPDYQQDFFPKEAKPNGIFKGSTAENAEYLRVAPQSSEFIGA

[8] = molecular target: T2, Epidermal growth factor receptor; assay: Inhibition of human EGFR T790M/del (746 to 750) deletion mutant using Fl-EEPLYWSFPAKKK-CONH2 as substrate preincubated for 30 mins followed by addition of substrate measured after 30 mins by Morrison plot analysis; assay type: protein assay; conditions: read-out: Ki(app)
[9] = Volume of distribution at steady state in rat; assay type: ADME, organism-based; conditions: in vivo, read-out: Vdss
physchem = conditions: buffer, pH 7.4, logD
Description: Lipophilicity, log D of the compound at pH 7.4 by microscale shake flask method

NCI-H292 = assay: Antiproliferative activity against human NCI-H292 cells expressing wild type EGFR after 72 hrs by luminescence assay; assay type: functional, cell-based; conditions: NCI-H292, 72 h
Mus musculus [10] = assay: In vivo inhibition of EGFR in human NCI-H1975 cells xenografted in po dosed SCID mouse assessed as suppression of ERK phosphorylation administered as qd everyday for 3 days measured 2 to 8 hrs post last dose by electrochemiluminescent immunoassay; assay type: functional
[11] = Unbound fraction in mouse plasma; assay type: ADME, cell-free
Mus musculus [12] = assay: In vivo inhibition of EGFR in human NCI-H1975 cells xenografted in po dosed SCID mouse assessed as suppression of AKT phosphorylation administered as qd everyday for 3 days measured 2 to 8 hrs post last dose by electrochemiluminescent immunoassay; assay type: functional
NCI-H1975 = assay: Antiproliferative activity against human NCI-H1975 cells expressing EGFR T790M/L858R double mutant after 72 hrs by luminescence assay; assay type: functional, cell-based; conditions: NCI-H1975, 72 h
[13] = Half life in rat; assay type: ADME, organism-based; conditions: in vivo
Liver microsome = assay: Drug level in rat liver microsomes treated with (R)-1-[6-[2-(cis-3-Fluoro-4-methoxypiperidin-1-yl)pyrimidin-4-ylamino]-1-((S)-2,2,2-trifluoro-1-methylethyl)-1H-imidazo[4,5-c]pyridin-2-yl]ethanol; assay type: ADME
[14] = Plasma clearance in rat at 5 mg/kg, iv; assay type: ADME, organism-based
Hepatocyte = assay: Drug level in rat hepatocytes treated with (R)-1-[6-[2-(cis-3-Fluoro-4-methoxypiperidin-1-yl)pyrimidin-4-ylamino]-1-((S)-2,2,2-trifluoro-1-methylethyl)-1H-imidazo[4,5-c]pyridin-2-yl]ethanol; assay type: ADME, cell-based
[15] = Antiproliferative activity against erlotinib-resistant human PC9 cells expressing EGFR with ex19del and T790M mutations after 72 hrs by luminescence assay; assay type: functional, cell-based; conditions: PC-9, 72 h
[16] = Oral bioavailability in rat; assay type: ADME, organism-based; conditions: in vivo

Q: What does the source list for `C[C@@H](O)c1nc2cnc(Nc3ccnc(N4CC[C@H](O)[C@H](F)C4)n3)cc2n1[C@H](C)C(F)(F)F`?
A: inhibition in vivo at 300 mg/kg (Mus musculus [1]): > 90%; CL free (Rattus norvegicus): 348 mL/min/kg; IC50 [2]: > 10000 nM; IC50 [3]: 81 nM; Ki [4]: 313 nM; inhibition in vivo at 300 mg/kg (Mus musculus [5]): > 65%; inhibition in vivo at 300 mg/kg (Mus musculus [6]): > 90%; Ki [7]: 2.5 nM; Ki [8]: 6 nM; Vd [9]: 3.5 L/kg; logD (physchem): 1.8; EC50 (NCI-H292): > 10000 nM; fEC50 (Mus musculus [10]): 0.3 µM; fraction unbound [11]: 0.207; fEC50 (Mus musculus [12]): 0.5 µM; EC50 (NCI-H1975): 868 nM; half-life [13]: 42.6 min; Drug metabolism (Liver microsome): metabolite_detected; clearance [14]: 71 mL/min/kg; Drug metabolism (Hepatocyte): metabolite_detected; EC50 [15]: 170 nM; bioavailability [16]: 29%
